Data taken from US7118895B2, “Process for producing aglycon by using diglycosidase and flavor-improved food containing the aglycon and converting agent to be used in the process” (Amano Enzyme Inc., priority 2000, dated 2006).

Tests used:
Crude diglycosidase = test: Examination of substrate concentration in the conversion into isoflavone aglycons by diglycosidase using soybean materials; format: biochemical, Penicillium multicolor IAM7153; settings: for Decomposition efficiency: ratio of each glycoside/aglycon within its isoflavone family: roasted soy flour;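 as to Decomposition efficiency: ratio of each glycoside/aglycon within its isoflavone family: percent of the isoflavone family total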
In short: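 Soybean materials (roasted soy flour, soymilk, defatted soybean, concentrated soy protein) at 2–30% (w/v) in 20 mM acetate pH 4.0 were reacted with crude diglycosidase at 55° C with shaking; enzyme solution added was 1.88 AU/mL. Samples taken at 0, 1, 3 and 6 h were ethanol-extracted and analyzed by HPLC.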

[1] = test system: Diglycosidase derived from A. fumigatus; test: Reactivity toward various isoflavone glycosides (HPLC); format: biochemical, Aspergillus fumigatus; design: unit not given here; settings: 55 °C, pH 4.0
Protocol: (§1) Diglycosidase was diluted with an acetate buffer of pH 4.0 to prepare a 0.75 AU/mL enzyme solution. As references, a similar operation was conducted using β-glucosidase (manufactured by Fluka) derived from Aspergillus niger, β-glucosidase (manufactured by Sigma) derived from almond, β-xylosidase derived from pectinase G (manufactured by Amano Enzyme Inc.). Each of purified products of isoflavone glycosides (glycitin, acetylglycitin, malonylglycitin, daidzin, acetyldaidzin, malonyldaidzin, genistin, acetylgenistin, malonylgenistin, all manufactured by Nacalai Tesque, Inc.) was dissolved in methanol to prepare each 2 mM substrate solution. The reaction was carried out by mixing 10 μL of a substrate solution, 200 μL of 20 mM acetate buffer (pH 4.0), and 40 μL of each purified enzyme solution at a total liquid volume of 250 μL. The reaction was carried out at 55° C. and isolation of an aglycon isoflavone from an isoflavone glycoside in the reaction mixture was detected by HLPC at 0, 1, 3, and 6 hours of the reaction.
(§2) To the reaction mixture was added 700 μL of ethanol, followed by stirring and ultrasonication. After centrifugation at 15,000 rpm and 4° C. for 10 minutes, the supernatant was filtered through a filter and then the filtrate was applied to HPLC.
(§3) The isoflavone glycoside and aglycon isoflavone contained in the filtrate was separated and detected by a high performance liquid chromatography (HPLC, Shimadzu CLASS LC-10 system) using TOSOH TSK gel ODS-80TM column (manufactured by Tosoh Corporation). […] The absorbance at 260 nm was detected by a UV detector (Shimadzu, SPD-10AV). Using purified products (manufactured by Nacalai Tesque, Inc.) of the above isoflavone glycosides and aglycon isoflavones, the isoflavone glycoside and aglycon isoflavone were quantitatively determined according to a calibration curve method. By the way, unless otherwise stated, the measuring conditions of HPLC herein mean those described in the example.

[2] = test system: β-Glucosidase derived from A. niger; test: as above; format: biochemical, Aspergillus niger; design: glucoside / aglycon: unit not given here; settings: 55 °C, pH 4.0
Protocol: as §1, §2, §3

[3] = substrate concentration 2%, heat treatment of enzyme no, reaction time 0 h
[4] = substrate concentration 2%, heat treatment of enzyme no, reaction time 1 h
[5] = substrate concentration 2%, heat treatment of enzyme no, reaction time 3 h
[6] = substrate concentration 2%, heat treatment of enzyme no, reaction time 6 h
[7] = substrate concentration 2%, heat treatment of enzyme yes, reaction time 6 h
[8] = substrate concentration 5%, heat treatment of enzyme no, reaction time 0 h
[9] = substrate concentration 5%, heat treatment of enzyme no, reaction time 1 h
[10] = substrate concentration 5%, heat treatment of enzyme no, reaction time 3 h
[11] = substrate concentration 5%, heat treatment of enzyme no, reaction time 6 h
[12] = substrate concentration 5%, heat treatment of enzyme yes, reaction time 6 h
[13] = substrate concentration 10%, heat treatment of enzyme no, reaction time 0 h
[14] = substrate concentration 10%, heat treatment of enzyme no, reaction time 1 h
[15] = substrate concentration 10%, heat treatment of enzyme no, reaction time 3 h
[16] = substrate concentration 10%, heat treatment of enzyme no, reaction time 6 h
[17] = substrate concentration 10%, heat treatment of enzyme yes, reaction time 6 h

CC(=O)OC[C@H]1O[C@@H](Oc2ccc3c(=O)c(-c4ccc(O)cc4)coc3c2)[C@H](O)[C@@H](O)[C@@H]1O [acetyldaidzin, 6″-O-acetyldaidzin]
Decomposition efficiency: ratio of each glycoside/aglycon within its isoflavone family (Crude diglycosidase; [3]): 47.6%
Decomposition efficiency: ratio of each glycoside/aglycon within its isoflavone family (Crude diglycosidase; [4]): 9.2%
Decomposition efficiency: ratio of each glycoside/aglycon within its isoflavone family (Crude diglycosidase; [5]): not detected
Decomposition efficiency: ratio of each glycoside/aglycon within its isoflavone family (Crude diglycosidase; [6]): not detected
Decomposition efficiency: ratio of each glycoside/aglycon within its isoflavone family (Crude diglycosidase; [7]): 47.2%
Decomposition efficiency: ratio of each glycoside/aglycon within its isoflavone family (Crude diglycosidase; [8]): 46.1%
Decomposition efficiency: ratio of each glycoside/aglycon within its isoflavone family (Crude diglycosidase; [9]): 20.9%
Decomposition efficiency: ratio of each glycoside/aglycon within its isoflavone family (Crude diglycosidase; [10]): 12.5%
Decomposition efficiency: ratio of each glycoside/aglycon within its isoflavone family (Crude diglycosidase; [11]): 6.8%
Decomposition efficiency: ratio of each glycoside/aglycon within its isoflavone family (Crude diglycosidase; [12]): 46.1%
Decomposition efficiency: ratio of each glycoside/aglycon within its isoflavone family (Crude diglycosidase; [13]): 38.5%
Decomposition efficiency: ratio of each glycoside/aglycon within its isoflavone family (Crude diglycosidase; [14]): 30.5%
Decomposition efficiency: ratio of each glycoside/aglycon within its isoflavone family (Crude diglycosidase; [15]): 21.5%
Decomposition efficiency: ratio of each glycoside/aglycon within its isoflavone family (Crude diglycosidase; [16]): 14.9%
Decomposition efficiency: ratio of each glycoside/aglycon within its isoflavone family (Crude diglycosidase; [17]): 47.7%
Decomposition efficiency: ratio of each glycoside/aglycon within its isoflavone family (Crude diglycosidase; substrate concentration 20%, heat treatment of enzyme no, reaction time 0 h): 46.1%
Decomposition efficiency: ratio of each glycoside/aglycon within its isoflavone family (Crude diglycosidase; substrate concentration 20%, heat treatment of enzyme no, reaction time 1 h): 40.7%
Decomposition efficiency: ratio of each glycoside/aglycon within its isoflavone family (Crude diglycosidase; substrate concentration 20%, heat treatment of enzyme no, reaction time 3 h): 32.6%
Decomposition efficiency: ratio of each glycoside/aglycon within its isoflavone family (Crude diglycosidase; substrate concentration 20%, heat treatment of enzyme no, reaction time 6 h): 25.1%
Decomposition efficiency: ratio of each glycoside/aglycon within its isoflavone family (Crude diglycosidase; substrate concentration 20%, heat treatment of enzyme yes, reaction time 6 h): 47.2%
Decomposition efficiency: ratio of each glycoside/aglycon within its isoflavone family (Crude diglycosidase; substrate concentration 30%, heat treatment of enzyme no, reaction time 0 h): 47.6%
Decomposition efficiency: ratio of each glycoside/aglycon within its isoflavone family (Crude diglycosidase; substrate concentration 30%, heat treatment of enzyme no, reaction time 1 h): 46.4%
Decomposition efficiency: ratio of each glycoside/aglycon within its isoflavone family (Crude diglycosidase; substrate concentration 30%, heat treatment of enzyme no, reaction time 3 h): 42.6%
Decomposition efficiency: ratio of each glycoside/aglycon within its isoflavone family (Crude diglycosidase; substrate concentration 30%, heat treatment of enzyme no, reaction time 6 h): 34.3%
Decomposition efficiency: ratio of each glycoside/aglycon within its isoflavone family (Crude diglycosidase; substrate concentration 30%, heat treatment of enzyme yes, reaction time 6 h): 47.4%
Decomposition efficiency of daidzin family in defatted soybean (Crude diglycosidase; [3]): not detected
Decomposition efficiency of daidzin family in defatted soybean (Crude diglycosidase; [4]): not detected
Decomposition efficiency of daidzin family in defatted soybean (Crude diglycosidase; [5]): not detected
Decomposition efficiency of daidzin family in defatted soybean (Crude diglycosidase; [6]): not detected
Decomposition efficiency of daidzin family in defatted soybean (Crude diglycosidase; [7]): not detected
Decomposition efficiency of daidzin family in defatted soybean (Crude diglycosidase; [8]): not detected
Decomposition efficiency of daidzin family in defatted soybean (Crude diglycosidase; [9]): not detected
Decomposition efficiency of daidzin family in defatted soybean (Crude diglycosidase; [10]): not detected
Decomposition efficiency of daidzin family in defatted soybean (Crude diglycosidase; [11]): not detected
Decomposition efficiency of daidzin family in defatted soybean (Crude diglycosidase; [12]): not detected
Decomposition efficiency of daidzin family in defatted soybean (Crude diglycosidase; [13]): not detected
Decomposition efficiency of daidzin family in defatted soybean (Crude diglycosidase; [14]): not detected
Decomposition efficiency of daidzin family in defatted soybean (Crude diglycosidase; [15]): not detected
Decomposition efficiency of daidzin family in defatted soybean (Crude diglycosidase; [16]): not detected
Decomposition efficiency of daidzin family in defatted soybean (Crude diglycosidase; [17]): not detected
aglycon ([1]; Reaction time 0 h): 0
glucoside ([1]; Reaction time 0 h): 100
aglycon ([1]; Reaction time 1 h): 26.1
glucoside ([1]; Reaction time 1 h): 73.9
aglycon ([1]; Reaction time 3 h): 47.2
glucoside ([1]; Reaction time 3 h): 52.8
aglycon ([1]; Reaction time 6 h): 66.5
glucoside ([1]; Reaction time 6 h): 33.5
aglycon ([2]; Reaction time 0 h): 0
glucoside ([2]; Reaction time 0 h): 100
aglycon ([2]; Reaction time 1 h): 4.4
glucoside ([2]; Reaction time 1 h): 95.6
aglycon ([2]; Reaction time 3 h): 6.4
glucoside ([2]; Reaction time 3 h): 93.6
aglycon ([2]; Reaction time 6 h): 9
glucoside ([2]; Reaction time 6 h): 91
